From patent publication US4211779A, “7α-Methoxy substituted cephalosporins” (Shionogi & Co., Ltd., priority 1976, dated 1980)
≈ marks a conversion by molar mass, not a printed value.

Columns and labels:
Format in all cases: cell-based
[1] = tested on: Escherichia coli No. 73; assay: Antibacterial activity (MIC), Escherichia coli No. 73
Protocol: (§1) Free acids found in Examples 2 to 5 are dissolved in dilute aqueous sodium hydrogencarbonate solution to yield the corresponding aqueous sodium salts solutions.

[2] = tested on: Klebsilla pneumoniae No. 363; assay: Antibacterial activity (MIC), Klebsiella pneumoniae No. 363
Protocol: as §1

[3] = tested on: gram negative bacteria resistant to cephalosporins; assay: antibacterial activity against gram negative bacteria resistant to cephalosporins; details: compared with the compound wherein Y is hydrogen
[4] = NO.363, Klebsiella pneumoniae No. 363, innoculum size 10^6
[5] = NO.363, Klebsiella pneumoniae No. 363, innoculum size 10^8

MIC ([1]; innoculum size 10^6)	MIC ([1]; innoculum size 10^8)	MIC [2, 4]	MIC [2, 5]	Compound	antibacterial activity against gram negative bacteria resistant to cephalosporins [3]
25 mg/L (≈ 38.7 µM)	> 100 mg/L	100 mg/L (≈ 155 µM)	> 100 mg/L	CCN1CCN(C(=O)NC(C(=O)N[C@@H]2C(=O)N3C(C(=O)O)=C(CSc4nnnn4C)CS[C@H]23)c2ccc(O)cc2)C(=O)C1=O (stereo partly shown) [Y H]	–
12.5 mg/L (≈ 29.2 µM)	12.5 mg/L (≈ 29.2 µM)	1.6 mg/L (≈ 3.74 µM)	6.3 mg/L (≈ 14.7 µM)	CO[C@@]1(NC(=O)Cc2cccs2)C(=O)N2C(C(=O)O)=C(COC(N)=O)CS[C@@H]21 [cefoxitin]	–

Compound	MIC ([1]; innoculum size 10^6)	MIC ([1]; innoculum size 10^8)	MIC [2, 4]	MIC [2, 5]	antibacterial activity against gram negative bacteria resistant to cephalosporins [3]
CCN1CCN(C(=O)NC(C(=O)NC2(OC)C(=O)N3C(C(=O)O)=C(CSc4nnnn4C)CSC32)c2ccc(O)cc2)C(=O)C1=O (stereo not shown) [Y OCH3]	1.6 mg/L (≈ 2.37 µM)	3.1 mg/L (≈ 4.59 µM)	0.8 mg/L (≈ 1.18 µM)	1.6 mg/L (≈ 2.37 µM)	more potent antibacterial activity
